Experimental data as given in ChEMBL document CHEMBL1131675, “A new anti-tubulin agent containing the benzo[b]thiophene ring system” (1999).

How the values were obtained:
P388 = assay: Inhibition of murine P388 lymphocytic leukemia cell proliferation; type: functional; conditions: Mus musculus, read-out: ED50 (the source's name)
[1] = target: Tubulin alpha chain (Sus scrofa) (UniProt P02550); assay: Percentage control on Tubulin- Dependent GTP hydrolysis was evaluated at 50 micro M concentration; type: functional; design: scale not given: the % may be the effect or the level left
Sequence of Tubulin alpha chain (Sus scrofa) (P02550 whole entry, looked up): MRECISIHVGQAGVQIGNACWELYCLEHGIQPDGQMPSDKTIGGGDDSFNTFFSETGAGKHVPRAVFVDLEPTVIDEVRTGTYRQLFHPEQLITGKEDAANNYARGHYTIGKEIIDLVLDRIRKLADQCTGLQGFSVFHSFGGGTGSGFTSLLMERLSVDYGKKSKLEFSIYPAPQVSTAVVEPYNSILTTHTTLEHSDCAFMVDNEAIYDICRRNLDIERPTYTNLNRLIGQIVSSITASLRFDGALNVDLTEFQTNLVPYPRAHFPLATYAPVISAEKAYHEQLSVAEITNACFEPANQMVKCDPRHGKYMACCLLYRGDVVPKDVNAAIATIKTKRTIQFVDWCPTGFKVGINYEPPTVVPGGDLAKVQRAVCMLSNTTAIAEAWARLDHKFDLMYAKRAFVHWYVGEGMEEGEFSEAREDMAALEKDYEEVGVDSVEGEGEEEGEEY

[2] = target: Tubulin alpha chain (Sus scrofa) (UniProt P02550); assay: Percentage control on Tubulin- Dependent GTP hydrolysis was evaluated at 10 micro M concentration; type: functional; design: scale not given: the % may be the effect or the level left
[3] = target: Tubulin alpha chain (Sus scrofa) (UniProt P02550); assay: Percentage control on Tubulin-Dependent GTP hydrolysis was evaluated at 50 uM concentration; type: functional; design: scale not given: the % may be the effect or the level left
[4] = target: Tubulin alpha chain (Sus scrofa) (UniProt P02550); assay: Percentage inhibition of [3H]colchicine binding to tubulin was evaluated at 50 uM concentration
[5] = target: Tubulin alpha chain (Sus scrofa) (UniProt P02550); assay: Percentage control on Tubulin-Dependent GTP hydrolysis was evaluated at 10 uM concentration; type: functional; design: scale not given: the % may be the effect or the level left

Row | SMILES | EC50 (P388) | Control [1] | Control [2] | also measured
1 | COc1ccc(-c2sc3cc(OC)ccc3c2C(=O)c2c(OC)cccc2OC)cc1 | > 100 µg/mL |  |  | 
2 | COc1ccc(-c2sc3cc(OC)ccc3c2C(=O)c2cc(OC)cc(OC)c2)cc1 | > 100 µg/mL |  |  | 
3 | COc1ccc(/C=C\c2cc(OC)c(OC)c(OC)c2)cc1O |  | 160% | 161% | 
4 | COc1ccc(-c2sc3cc(OC)ccc3c2C(=O)c2cc(OC)c(O)c(OC)c2)cc1 | > 100 µg/mL |  |  | 
5 | COc1ccc(-c2sc3cc(OC)ccc3c2C(=O)c2cc(OC)c(OC)c(OC)c2)cc1 |  |  |  | Control [3]: 135%; inhibition [4]: 28%; Control [5]: 122%
6 | COc1cc([C@@H]2c3cc4c(cc3[C@H](O)[C@H]3COC(=O)[C@H]23)OCO4)cc(OC)c1OC |  | 31% | 43% | 
